In patent US10112951B2, “PDE1 inhibitor” (Eli Lilly and Company, priority 2016, dated 2018) one finds IC50 data, which are given here for 1 compound.

Format in all cases: biochemical
Assay [1] has as its target T1, PDE3A (catalytic domain) (Homo sapiens, UniProt Q14432).
T1 construct: catalytic domain (residue 641-1141) of PDE3A (NP_000912.3); His (C); made in house; host or cells: Sf9 (baculovirus, pFastBac1)
Briefly: PDE enzyme assay using [3H]cAMP as substrate, PDE3A. The conditions noted are these: [3H]cAMP 47 nM, enzyme 0.008 nM, read-out: IC50 (nM) of Example 1, PDE3A. The text has this:
(§1) The nucleotide sequences encoding full-length human PDE1A (NP_001003683.1), PDE1C (NP_005011.1), PDE5A (NP_001074.2), PDE7B (NP_061818.1) and PDE9A (NP_002597.1) are inserted into pFastBac1 (Invitrogen) vector with an N-terminal HIS tag. The nucleotide sequences encoding full-length human PDE4D (NP_006194.2) and catalytic domain (residue 641-1141) of PDE3A (NP_000912.3) are inserted into pFastBac1 (Invitrogen) vector with a C-terminal HIS tag. The nucleotide sequences encoding full-length human PDE8A (NP_002596.1) and PDE11A (AAI12394.1) are inserted into pFastBac1 (Invitrogen) vector with an N-terminal Flag tag. The nucleotide sequences encoding full-length human PDE10A (AAD32595.1) are inserted into pFastBac1 (Invitrogen) vector with a C-terminal Flag-His tag. […]
(§2) All 3′, 5′ cyclic nucleotide phosphodiesterase (PDE) enzyme activities are measured with a radiometric enzyme assay based on SPA detection system (scintillation proximity assay). […] Samples are read 12 hours later in a MICROBETA™ TRILUX® Counter. […] IC50 values are calculated by plotting the normalized data vs. log [compound] and fitting the data using a four parameter logistic equation.
(§3) The following phosphodiesterase activities are measured using [^3H]cAMP as reaction substrate: PDE3A (catalytic domain), PDE4D, PDE7B and PDE8A. […]

For assay [2], the target named is T2, PDE4D (Homo sapiens, UniProt Q08499).
T2 construct: full-length human PDE4D (NP_006194.2); His (C); made in house; host or cells: Sf9 (baculovirus, pFastBac1)
T2 sequence (Q08499 1-673 isoform Q08499-2): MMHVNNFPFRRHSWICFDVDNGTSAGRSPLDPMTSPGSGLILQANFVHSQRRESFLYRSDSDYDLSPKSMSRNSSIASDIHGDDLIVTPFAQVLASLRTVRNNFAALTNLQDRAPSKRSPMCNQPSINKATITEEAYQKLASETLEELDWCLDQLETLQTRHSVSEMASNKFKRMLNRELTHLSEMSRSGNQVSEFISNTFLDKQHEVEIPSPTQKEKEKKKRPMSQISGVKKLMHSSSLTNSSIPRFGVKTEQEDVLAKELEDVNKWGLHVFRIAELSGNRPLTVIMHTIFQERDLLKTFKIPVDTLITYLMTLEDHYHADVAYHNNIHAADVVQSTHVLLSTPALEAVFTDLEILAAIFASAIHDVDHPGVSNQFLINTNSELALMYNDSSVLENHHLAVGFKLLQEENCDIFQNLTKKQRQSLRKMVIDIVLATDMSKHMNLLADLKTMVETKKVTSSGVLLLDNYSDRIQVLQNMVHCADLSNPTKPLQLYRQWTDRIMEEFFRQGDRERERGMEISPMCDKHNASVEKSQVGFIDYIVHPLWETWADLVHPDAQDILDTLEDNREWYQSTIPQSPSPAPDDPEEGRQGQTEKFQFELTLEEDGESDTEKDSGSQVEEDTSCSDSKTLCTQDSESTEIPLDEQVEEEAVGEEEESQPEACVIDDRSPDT
The experiment in a line: PDE enzyme assay using [3H]cAMP as substrate, PDE4D. The conditions noted are these: [3H]cAMP 47 nM; enzyme 0.021 nM; read-out: IC50 (nM) of Example 1, PDE4D.
Text: as §1, §2, §3

Assay [3] deals with T3, PDE8A (Homo sapiens, UniProt O60658).
T3 construct: full-length human PDE8A (NP_002596.1); Flag (N); made in house; host or cells: Sf9 (baculovirus, pFastBac1)
T3 sequence (O60658 whole entry): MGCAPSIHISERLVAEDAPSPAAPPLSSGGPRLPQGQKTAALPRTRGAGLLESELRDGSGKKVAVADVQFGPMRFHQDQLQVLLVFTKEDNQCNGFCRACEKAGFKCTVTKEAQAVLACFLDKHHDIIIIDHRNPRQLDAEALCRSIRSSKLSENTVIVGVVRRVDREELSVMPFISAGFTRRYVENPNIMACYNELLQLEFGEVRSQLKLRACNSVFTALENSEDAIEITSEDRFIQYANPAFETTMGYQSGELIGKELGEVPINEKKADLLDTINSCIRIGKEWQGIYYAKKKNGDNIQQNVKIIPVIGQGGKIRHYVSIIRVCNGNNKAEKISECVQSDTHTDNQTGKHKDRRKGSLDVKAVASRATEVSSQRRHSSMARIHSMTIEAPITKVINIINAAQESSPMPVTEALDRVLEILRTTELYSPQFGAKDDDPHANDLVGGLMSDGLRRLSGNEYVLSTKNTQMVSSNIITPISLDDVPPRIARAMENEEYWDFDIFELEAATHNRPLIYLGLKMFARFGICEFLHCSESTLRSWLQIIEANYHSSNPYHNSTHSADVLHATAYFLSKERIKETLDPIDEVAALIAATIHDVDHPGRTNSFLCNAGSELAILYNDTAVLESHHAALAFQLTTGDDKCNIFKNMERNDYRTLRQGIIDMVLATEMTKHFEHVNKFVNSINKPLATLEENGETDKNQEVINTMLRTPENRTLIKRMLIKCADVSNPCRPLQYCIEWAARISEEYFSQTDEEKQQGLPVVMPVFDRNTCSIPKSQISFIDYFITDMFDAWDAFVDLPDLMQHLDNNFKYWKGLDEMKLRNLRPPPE
The experiment in a line: PDE enzyme assay using [3H]cAMP as substrate, PDE8A. The conditions noted are these: [3H]cAMP 47 nM; enzyme 0.06 nM; read-out: IC50 (nM) of Example 1, PDE8A.
Text: as §1, §2, §3

Assay [4] addresses T4, PDE1C (Homo sapiens, UniProt Q14123).
T4 construct: full-length human PDE1A (NP_001003683.1), PDE1C (NP_005011.1); His (N); made in house; host or cells: Sf9 (baculovirus, pFastBac1)
Briefly: Ca2+-calmodulin dependent PDE enzyme assay (SPA), PDE1C. Conditions: [3H]cAMP 47 nM; enzyme 0.0012 nM; Ca2+/calmodulin buffer pH 7.5; read-out: IC50 (nM) of Example 1, PDE 1C. The text has this:
(§4) The nucleotide sequences encoding full-length human PDE1A (NP_001003683.1), PDE1C (NP_005011.1), PDE5A (NP_001074.2), PDE7B (NP_061818.1) and PDE9A (NP_002597.1) are inserted into pFastBac1 (Invitrogen) vector with an N-terminal HIS tag. The nucleotide sequences encoding full-length human PDE4D (NP_006194.2) and catalytic domain (residue 641-1141) of PDE3A (NP_000912.3) are inserted into pFastBac1 (Invitrogen) vector with a C-terminal HIS tag. The nucleotide sequences encoding full-length human PDE8A (NP_002596.1) and PDE11A (AAI12394.1) are inserted into pFastBac1 (Invitrogen) vector with an N-terminal Flag tag. The nucleotide sequences encoding full-length human PDE10A (AAD32595.1) are inserted into pFastBac1 (Invitrogen) vector with a C-terminal Flag-His tag. The nucleotide sequences encoding full-length human PDE6A (NP_000431.2) and PDE6B (AAH00249.1) are inserted into pFastBacDual (Invitrogen) vector with an N-terminal HIS tag and N-terminal Flag tag, respectively, for production of PDE6A/6B dimer. […]
(§5) All 3′, 5′ cyclic nucleotide phosphodiesterase (PDE) enzyme activities are measured with a radiometric enzyme assay based on SPA detection system (scintillation proximity assay). […] Samples are read 12 hours later in a MICROBETA™ TRILUX® Counter. […] IC50 values are calculated by plotting the normalized data vs. log [compound] and fitting the data using a four parameter logistic equation. […]

The target in assay [5] is T5, PDE1B (Homo sapiens, UniProt Q01064).
T5 construct: full-length human PDE1B (NP_000915.1); His (C); made in house; host or cells: Sf9 (pIEX4)
Briefly: Ca2+-calmodulin dependent PDE enzyme assay (SPA), PDE1B. Conditions: [3H]cAMP 47 nM; enzyme 0.074 nM; Ca2+/calmodulin buffer pH 7.5; read-out: IC50 (nM) of Example 1, PDE 1B.
Text: as §4, §5

The target of assay [6] is T6, PDE6AB (PDE6A/6B dimer) (Homo sapiens, UniProt P16499+P35913).
T6 construct: full-length human PDE6A (NP_000431.2); full-length human PDE6A (NP_000431.2) and PDE6B (AAH00249.1); His (N); Flag (N); made in house; host or cells: Sf9 (baculovirus, pFastBacDual)
The experiment in a line: PDE enzyme assay using [3H]cGMP as substrate, PDE6AB. Conditions: [3H]cGMP 80 nM; enzyme 5 nM; read-out: IC50 (nM) of Example 1, PDE 6AB.
Text: as §1, §2
(§6) The following phosphodiesterase activities are measured using [^3H]cGMP as reaction substrate: PDE2A, PDE5A, PDE6A/6B, PDE9A, PDE10A and PDE11A. […]

The target in assay [7] is T7, PDE9A (Homo sapiens, UniProt O76083).
T7 construct: full-length human PDE1A (NP_001003683.1), PDE1C (NP_005011.1), PDE5A (NP_001074.2), PDE7B (NP_061818.1) and PDE9A (NP_002597.1); His (N); made in house; host or cells: Sf9 (baculovirus, pFastBac1)
T7 sequence (O76083 whole entry): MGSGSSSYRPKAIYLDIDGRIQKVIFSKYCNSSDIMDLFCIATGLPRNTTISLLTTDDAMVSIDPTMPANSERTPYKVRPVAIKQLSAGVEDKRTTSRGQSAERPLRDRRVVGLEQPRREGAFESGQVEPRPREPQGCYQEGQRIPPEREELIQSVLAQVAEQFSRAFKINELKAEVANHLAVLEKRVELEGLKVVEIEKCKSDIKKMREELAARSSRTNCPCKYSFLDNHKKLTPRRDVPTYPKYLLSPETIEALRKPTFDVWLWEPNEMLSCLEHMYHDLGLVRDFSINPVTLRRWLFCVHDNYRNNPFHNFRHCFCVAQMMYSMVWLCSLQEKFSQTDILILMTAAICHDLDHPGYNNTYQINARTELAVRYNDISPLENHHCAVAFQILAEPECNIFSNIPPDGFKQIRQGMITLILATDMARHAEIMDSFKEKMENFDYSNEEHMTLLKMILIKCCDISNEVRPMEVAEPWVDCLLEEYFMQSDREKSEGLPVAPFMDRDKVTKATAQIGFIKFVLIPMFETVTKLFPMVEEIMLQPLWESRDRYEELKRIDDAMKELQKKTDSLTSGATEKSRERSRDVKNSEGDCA
Briefly: PDE enzyme assay using [3H]cGMP as substrate, PDE9A. The conditions noted are these: [3H]cGMP 20 nM; enzyme 1 nM; read-out: IC50 (nM) of Example 1, PDE9A.
Text: as §1, §2, §6

Assay [8] concerns the target T8, PDE2A (Homo sapiens, UniProt O00408).
T8 construct: full-length human PDE1B (NP_000915.1) and PDE2A (NP_002590.1); His (C); made in house; host or cells: Sf9 (pIEX4)
Briefly: PDE enzyme assay using [3H]cGMP as substrate, PDE2A. The conditions noted are these: [3H]cGMP 80 nM; enzyme 0.2 nM; read-out: IC50 (nM) of Example 1, PDE2A.
Text: as §1, §2, §6

Assay [9] has as its target T9, PDE10A (Homo sapiens, UniProt Q9Y233).
T9 construct: full-length human PDE10A (AAD32595.1); Flag-His (C); made in house; host or cells: Sf9 (baculovirus, pFastBac1)
Briefly: PDE enzyme assay using [3H]cGMP as substrate, PDE10A. The conditions noted are these: [3H]cGMP 80 nM; enzyme 0.03 nM; read-out: IC50 (nM) of Example 1, PDE10A.
Text: as §1, §2, §6

Assay [10] addresses T10, PDE5A (Homo sapiens, UniProt O76074).
T10 construct: full-length human PDE1A (NP_001003683.1), PDE1C (NP_005011.1), PDE5A (NP_001074.2); His (N); made in house; host or cells: Sf9 (baculovirus, pFastBac1)
The experiment in a line: PDE enzyme assay using [3H]cGMP as substrate, PDE5A. The conditions noted are these: [3H]cGMP 80 nM; enzyme 0.002 nM; read-out: IC50 (nM) of Example 1, PDE5A.
Text: as §1, §2, §6

The target of assay [11] is T11, PDE1A (Homo sapiens, UniProt P54750).
T11 construct: full-length human PDE1A (NP_001003683.1); His (N); made in house; host or cells: Sf9 (baculovirus, pFastBac1)
The experiment in a line: Ca2+-calmodulin dependent PDE enzyme assay (SPA), PDE1A. The conditions noted are these: [3H]cAMP 47 nM; enzyme 0.25 nM; Ca2+/calmodulin buffer pH 7.5; read-out: IC50 (nM) of Example 1, PDE 1A.
Text: as §4, §5

In assay [12] the target is T12, PDE11A (Homo sapiens, UniProt Q9HCR9).
T12 construct: full-length human PDE8A (NP_002596.1) and PDE11A (AAI12394.1); Flag (N); made in house; host or cells: Sf9 (baculovirus, pFastBac1)
Briefly: PDE enzyme assay using [3H]cGMP as substrate, PDE11A. The conditions noted are these: [3H]cGMP 80 nM; enzyme 0.03 nM; read-out: IC50 (nM) of Example 1, PDE11A.
Text: as §1, §2, §6

The target in assay [13] is T13, PDE7B (Homo sapiens, UniProt Q9NP56).
T13 construct: full-length human PDE1A (NP_001003683.1), PDE1C (NP_005011.1), PDE5A (NP_001074.2), PDE7B (NP_061818.1); His (N); made in house; host or cells: Sf9 (baculovirus, pFastBac1)
T13 sequence (Q9NP56 whole entry): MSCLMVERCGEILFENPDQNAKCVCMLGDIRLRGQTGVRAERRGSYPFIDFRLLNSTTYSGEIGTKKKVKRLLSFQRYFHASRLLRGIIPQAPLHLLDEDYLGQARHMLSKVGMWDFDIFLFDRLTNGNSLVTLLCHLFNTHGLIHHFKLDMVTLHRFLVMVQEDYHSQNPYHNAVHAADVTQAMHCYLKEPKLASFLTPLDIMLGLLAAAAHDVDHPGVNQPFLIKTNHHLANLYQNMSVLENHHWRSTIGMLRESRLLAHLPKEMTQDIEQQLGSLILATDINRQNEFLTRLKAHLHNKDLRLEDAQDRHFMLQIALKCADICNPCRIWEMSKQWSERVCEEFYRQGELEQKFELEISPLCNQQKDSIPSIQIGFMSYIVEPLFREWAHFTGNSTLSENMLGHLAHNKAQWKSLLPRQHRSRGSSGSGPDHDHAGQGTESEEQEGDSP
Briefly: PDE enzyme assay using [3H]cAMP as substrate, PDE7B. Conditions: [3H]cAMP 47 nM; enzyme 0.5 nM; read-out: IC50 (nM) of Example 1, PDE7B.
Text: as §1, §2, §3

T8 sequence (O00408 whole entry): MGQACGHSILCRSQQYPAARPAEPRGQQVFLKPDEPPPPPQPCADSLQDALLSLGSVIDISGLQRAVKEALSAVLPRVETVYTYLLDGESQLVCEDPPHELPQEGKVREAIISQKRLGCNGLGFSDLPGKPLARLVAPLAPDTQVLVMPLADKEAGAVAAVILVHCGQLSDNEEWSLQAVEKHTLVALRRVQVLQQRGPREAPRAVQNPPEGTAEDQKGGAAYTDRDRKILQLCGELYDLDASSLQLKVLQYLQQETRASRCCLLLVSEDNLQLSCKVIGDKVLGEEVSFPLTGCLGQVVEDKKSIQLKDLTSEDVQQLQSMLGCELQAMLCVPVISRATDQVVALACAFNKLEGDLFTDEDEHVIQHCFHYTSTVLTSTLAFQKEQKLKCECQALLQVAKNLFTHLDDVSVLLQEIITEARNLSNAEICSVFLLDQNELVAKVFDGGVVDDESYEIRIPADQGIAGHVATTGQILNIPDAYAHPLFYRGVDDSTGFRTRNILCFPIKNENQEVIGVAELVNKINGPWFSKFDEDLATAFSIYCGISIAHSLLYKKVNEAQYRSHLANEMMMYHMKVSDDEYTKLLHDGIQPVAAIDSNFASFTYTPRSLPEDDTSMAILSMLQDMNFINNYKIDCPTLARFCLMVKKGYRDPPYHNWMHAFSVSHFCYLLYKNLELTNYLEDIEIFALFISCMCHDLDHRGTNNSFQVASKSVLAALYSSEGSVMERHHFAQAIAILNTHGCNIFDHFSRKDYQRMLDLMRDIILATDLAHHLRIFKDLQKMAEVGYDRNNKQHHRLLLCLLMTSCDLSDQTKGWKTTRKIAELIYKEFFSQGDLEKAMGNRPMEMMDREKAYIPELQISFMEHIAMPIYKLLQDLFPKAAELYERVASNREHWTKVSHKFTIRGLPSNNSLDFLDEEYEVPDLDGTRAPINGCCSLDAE
T1 sequence (Q14432 641-1141): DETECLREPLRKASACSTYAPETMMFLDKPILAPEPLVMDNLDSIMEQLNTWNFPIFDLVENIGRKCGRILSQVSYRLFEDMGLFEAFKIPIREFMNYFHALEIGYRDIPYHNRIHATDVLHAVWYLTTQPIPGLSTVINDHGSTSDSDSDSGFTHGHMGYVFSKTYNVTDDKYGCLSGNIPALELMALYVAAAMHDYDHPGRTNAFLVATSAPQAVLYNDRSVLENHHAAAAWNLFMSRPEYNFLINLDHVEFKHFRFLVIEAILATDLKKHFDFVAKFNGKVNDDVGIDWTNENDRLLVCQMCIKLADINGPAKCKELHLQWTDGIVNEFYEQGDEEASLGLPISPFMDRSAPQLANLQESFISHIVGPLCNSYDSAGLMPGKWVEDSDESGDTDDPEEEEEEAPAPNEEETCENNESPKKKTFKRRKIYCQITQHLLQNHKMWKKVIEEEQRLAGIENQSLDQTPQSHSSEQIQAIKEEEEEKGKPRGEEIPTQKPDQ
T9 sequence (Q9Y233 1-779 isoform Q9Y233-1): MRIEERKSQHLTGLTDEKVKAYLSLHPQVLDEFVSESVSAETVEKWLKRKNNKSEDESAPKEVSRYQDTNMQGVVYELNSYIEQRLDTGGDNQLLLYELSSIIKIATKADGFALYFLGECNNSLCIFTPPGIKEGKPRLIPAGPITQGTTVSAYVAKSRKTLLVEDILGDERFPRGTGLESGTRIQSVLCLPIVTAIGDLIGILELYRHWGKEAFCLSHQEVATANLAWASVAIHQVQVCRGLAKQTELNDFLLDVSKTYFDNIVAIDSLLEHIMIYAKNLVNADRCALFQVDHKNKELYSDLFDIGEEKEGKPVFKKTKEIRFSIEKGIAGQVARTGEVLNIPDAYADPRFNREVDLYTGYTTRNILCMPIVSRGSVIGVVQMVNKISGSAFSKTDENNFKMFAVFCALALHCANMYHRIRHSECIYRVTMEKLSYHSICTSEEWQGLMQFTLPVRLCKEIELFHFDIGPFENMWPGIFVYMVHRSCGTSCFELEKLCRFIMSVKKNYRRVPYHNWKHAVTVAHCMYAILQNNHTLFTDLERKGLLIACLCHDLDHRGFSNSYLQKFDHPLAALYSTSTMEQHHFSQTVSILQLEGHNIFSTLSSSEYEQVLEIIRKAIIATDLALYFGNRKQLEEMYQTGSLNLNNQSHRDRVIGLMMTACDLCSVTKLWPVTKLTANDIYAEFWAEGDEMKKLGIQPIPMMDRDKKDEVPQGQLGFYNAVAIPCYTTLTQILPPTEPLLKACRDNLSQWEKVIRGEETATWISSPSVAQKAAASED

As for `O=c1c2nnc(C3(C4CC4)CC3)n2c2c(n1CC1CC1)CCCC2` [Example 1, 1-(1-cyclopropylcyclopropyl)-5-(cyclopropylmethyl)-6,7,8,9-tetrahydro-[1,2,4]triazolo[4,3-a]quinoxalin-4-one], the concentration for half-maximal inhibition (IC50) (in general, the concentration that inhibits the measured activity by half) in [1] is above 100000 nM; in assay [2] it was 7060 nM; in [3], above 10000 nM; in assay [4], 3.05 nM; in assay [5], 4.91 nM; in assay [6], above 10000 nM. The IC50 in [7] is above 10000 nM; in assay [8], above 10000 nM; in assay [9] it was above 10000 nM; in assay [10], above 10000 nM; in assay [11], 3.41 nM; in assay [12], 2970 nM. For the same compound, the IC50 in assay [13] was found to be 2180 nM.
